From PubChem BioAssay (NCI)
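How tested: cells in 96-well plates exposed to compound for 48 hours at five concentrations. The concentration for 50% growth inhibition is given as GI50. TGI: concentration producing complete growth inhibition.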 Where a SMILES comes first, the peptide text is derived from it. The star is where a group is joined. Boc = CC(C)(C)OC(=O)*

Columns and labels:
Experiment in all cases: growth of human tumour cells (NCI), 48 h
CCRF-CEM leukemia = system: CCRF-CEM leukemia
HCC-2998 colon = system: HCC-2998 colon
LOX IMVI melanoma = system: LOX IMVI melanoma
MOLT-4 leukemia = system: MOLT-4 leukemia
NCI-H460 lung = system: NCI-H460 lung
RPMI-8226 leukemia = system: RPMI-8226 leukemia
SF-268 CNS = system: SF-268 CNS
SK-MEL-28 melanoma = system: SK-MEL-28 melanoma
SK-OV-3 ovarian = system: SK-OV-3 ovarian
HOP-92 NSCLC = system: HOP-92 NSCLC

| Compound | TGI (CCRF-CEM leukemia) | TGI (HCC-2998 colon) | TGI (LOX IMVI melanoma) | TGI (MOLT-4 leukemia) | TGI (NCI-H460 lung) | TGI (RPMI-8226 leukemia) | TGI (SF-268 CNS) | TGI (SK-MEL-28 melanoma) | TGI (SK-OV-3 ovarian) | TGI (HOP-92 NSCLC) | GI50 (SF-268 CNS) |
| --- | --- | --- | --- | --- | --- | --- | --- | --- | --- | --- | --- |
| C=C(Br)CNC(=O)CCC(=O)NCC(=C)Br | > 100 µM | > 100 µM | > 100 µM | > 100 µM | > 100 µM | > 100 µM | > 100 µM | > 100 µM | > 100 µM |  |  |
| COc1ccc(-c2cc3[nH]nc(N)c3c(=O)o2)cc1 | > 100 µM | > 100 µM | > 100 µM | > 100 µM | > 100 µM | > 100 µM | > 100 µM | > 100 µM |  | > 100 µM |  |
| COc1ccc2nc(-c3ccc(O)cc3)sc2c1 |  |  | 44.9 µM | 78.3 µM | > 100 µM | 0.678 µM | 49.5 µM |  | 91.2 µM |  |  |
| O=C1CC(c2ccccc2)n2cccc21 (centres undefined) | > 100 µM | > 100 µM | > 100 µM |  |  | > 100 µM | > 100 µM | > 100 µM | > 100 µM | > 100 µM |  |
| BrC(c1cccc2ccccc12)c1cccc2ccccc12 |  |  | 30.1 µM | > 100 µM | 30.4 µM | > 100 µM | 26.6 µM | 44.6 µM |  | 28.8 µM |  |
| COC(=O)C(Cc1c[nH]c2ccccc12)NC(=O)C(Cc1c[nH]c2ccccc12)NC(=O)C(Cc1c[nH]c2ccccc12)NC(=O)C(Cc1c[nH]c2ccccc12)NC(=O)C(Cc1c[nH]c2ccccc12)NC(=O)C(Cc1c[nH]c2ccccc12)NC(=O)C(Cc1c[nH]c2ccccc12)NC(=O)C(Cc1c[nH]c2ccccc12)NC(=O)OC(C)(C)C (centres undefined) (Boc-WWWWWWWW-OMe; configuration not given here) | 96.2 µM | > 100 µM | > 100 µM | > 100 µM | > 100 µM | > 100 µM | > 100 µM | > 100 µM |  |  |  |
| COc1ccccc1C(=O)c1c(NCc2ccccc2)c(=O)c1=O | > 100 µM | > 100 µM | > 100 µM | 83.3 µM | > 100 µM | > 100 µM | > 100 µM | 35.8 µM | > 100 µM | > 100 µM |  |
| COc1cc(Cc2nccc3cc(OC)c(OC)cc23)c(N=NN(C)C)cc1OC | 9.33 µM | 28.9 µM |  | 90.3 µM | 22.3 µM | 39.7 µM | 77.8 µM | 31.1 µM | 49.2 µM |  |  |
| OC(c1cc(C23CC4CC(CC(C4)C2)C3)nc2c(Cl)cc(Cl)cc12)C1CCCCN1 (centres undefined) |  |  |  | 3.57 µM | 3.13 µM |  | 3.25 µM |  |  | 2.67 µM |  |
| Cc1ccnc(NC(NC(=O)c2ccccc2)(C(F)(F)F)C(F)(F)F)c1 | > 100 µM | > 100 µM | > 100 µM | > 100 µM |  | > 100 µM | > 100 µM | > 100 µM | > 100 µM | > 100 µM |  |
| Oc1ccc2c(c1)-c1c(c3ccccc3n1CCN1CCOCC1)CC2 | > 100 µM |  | > 100 µM | > 100 µM | > 100 µM | > 100 µM | > 100 µM |  | 85.2 µM |  |  |
| CCCC(=O)OC1C(CO)OC(n2cc(F)c(=O)[nH]c2=O)C1F (centres undefined) | > 100 µM |  | > 100 µM | > 100 µM |  | > 100 µM |  | > 100 µM | > 100 µM | > 100 µM |  |
| Cc1cc(S(=O)(=O)Nc2nc3ccccc3c(=O)n2N)c(S)cc1Cl | > 100 µM | > 100 µM | > 100 µM | > 100 µM | > 100 µM | > 100 µM | 40.1 µM | > 100 µM | > 100 µM |  | 7.23 µM |
| Nc1nc2c3nc(Nc4ccccc4)sc3nc(=O)n2c2sc(Nc3ccccc3)nc12 | > 100 µM | > 100 µM |  | > 100 µM |  | > 100 µM | > 100 µM | > 100 µM | > 100 µM | > 100 µM |  |
| O=c1/c(=C/c2ccc(-c3ccc(Cl)cc3Cl)o2)sc2n1[C@@H](c1ccc(Cl)cc1)C=C(c1cc(F)c(Cl)cc1Cl)N=2 |  | 56.2 µM | > 100 µM | 67.9 µM | > 100 µM | > 100 µM | > 100 µM | > 100 µM | 61.7 µM | 61.7 µM |  |
| COc1ccc2c(c1)CCc1c-2n(CCN2CCCCC2)c2ccc(OC)cc12 | > 100 µM | > 100 µM | > 100 µM |  | > 100 µM | > 100 µM | > 100 µM | > 100 µM | > 100 µM |  |  |
| CC(C)(C)OC(=O)N1C(c2cccnc2)=CC[C@H]2C3CC=C(c4cccnc4)[C@@]3(C)CC[C@@H]21 (some centres undefined) | 25.8 µM |  | 8.41 µM | > 100 µM | 14.1 µM | 5.05 µM | 11.5 µM |  | 15 µM | 8.34 µM |  |
| CN(C)c1nc(Cl)c2c(-c3ccccc3)c(-c3ccccc3)oc2n1 | > 100 µM | > 100 µM | > 100 µM | 96.2 µM |  | 60.8 µM | > 100 µM | > 100 µM | > 100 µM | > 100 µM |  |
| O=C(O)CN1C(=O)C(Cc2ccc(O)cc2)N=C(c2cccc(O)c2)c2ccccc21 (centres undefined) |  |  | > 100 µM | > 100 µM | > 100 µM | > 100 µM | > 100 µM | > 100 µM | > 100 µM | > 100 µM |  |
| CC(=O)O[C@H]1[C@H](OC(=O)CC(C)(O)CC(=O)O)C[C@]2(C)C3=C(CCC2C1(C)C)[C@]1(C)CC[C@H]([C@H]2CC[C@H](C(C)(C)O)OC2O)[C@@]1(C)[C@@H](O)C3 (some centres undefined) | 49.7 µM | 31.7 µM | 35.9 µM | 40.9 µM | 28.6 µM | 43.8 µM |  | 31.5 µM | 30.6 µM | 31.1 µM |  |
| NC(N)=Nc1ccc(CC(N)C(=O)O)cc1 (centres undefined) | > 12.5 µM | > 12.5 µM | > 12.5 µM | > 12.5 µM |  | > 12.5 µM | > 12.5 µM | > 12.5 µM | > 12.5 µM | > 12.5 µM |  |
| N#C/C(N)=C(\C#N)NC(=O)C(=O)N/C(C#N)=C(\N)C#N | > 100 µM | > 100 µM | > 100 µM | > 100 µM | > 100 µM | > 100 µM | > 100 µM | > 100 µM |  | > 100 µM |  |
